Results published in ChEMBL document CHEMBL1158378, “QSAR model for predicting radical scavenging activity of di(hetero)arylamines derivatives of benzo[b]thiophenes” (Eur J Med Chem, 2009).

Tests used:
[1] = tested on: Radical scavenging activity; test: Antioxidant activity assessed as inhibition of DPPH radical formation by Hatano's method; format: functional
[2] = tested on: Radical scavenging activity; test: Antioxidant activity assessed as inhibition of DPPH radical formation; format: functional

| Structure (SMILES) | pEC50 [1] | pEC50 [2] |
| --- | --- | --- |
| COc1ccc(Nc2cc3sc(C)c(C)c3cc2C)cc1 | 4.14 |  |
| COc1ccc(Nc2c(C(=O)O)sc3ccccc23)c(OC)c1 | 3.61 |  |
| COc1ccc(Nc2cccc3c(C)c(C)sc23)cc1OC | 4.26 |  |
| COc1ccc(Nc2cc3sc(C)c(C)c3cc2C)cc1OC | 4.3 |  |
| CCOC(=O)c1sc2ccccc2c1Nc1ccc(OC)cc1OC | 3.77 |  |
| Cc1sc2c(Nc3cccnc3)cccc2c1C | 2.5 |  |
| Cc1sc2c(Nc3ccccn3)cccc2c1C | 2.26 |  |
| COc1ccc(Nc2cccc3c(C)c(C)sc23)cc1 | 4.3 |  |
| COc1cccc(Nc2cccc3c(C)c(C)sc23)c1 | 2.81 |  |
| CCOC(=O)c1sc2ccccc2c1Nc1ccc(O)cc1O | 3.84 |  |
| Cc1sc2c(C)c(Nc3ccc(C#N)cc3)cc(C)c2c1C |  | 2.29 |
| COc1ccc(Nc2cc(C)c3c(C)c(C)sc3c2C)c(Br)c1 |  | 3.98 |
| COc1ccc(Nc2csc3ccccc23)c(OC)c1 |  | 4.06 |
| Cc1cc2c(C)c(C)sc2cc1Nc1ccccc1Br |  | 3.05 |
| COc1ccc(Nc2cc3sc(C)c(C)c3cc2C)c(Br)c1 |  | 3.69 |
| Fc1ccccc1Nc1csc2ccccc12 | 3.81 |  |
| Cc1sc2c(C)c(Nc3ccccn3)cc(C)c2c1C |  | 2.1 |
| COc1ccc(Nc2cc3sc(C)c(C)c3cc2C)c(OC)c1 |  | 4.07 |
| COc1cc(Br)c(Nc2cc3sc(C)c(C)c3cc2C)cc1OC |  | 3.81 |
| Cc1sc2c(C)c(Nc3ccccc3Br)cc(C)c2c1C |  | 2.43 |
| COc1ccc(Nc2cc(C)c3c(C)c(C)sc3c2C)cc1 |  | 3.89 |
| CCOC(=O)c1sc2ccccc2c1Nc1ccccc1O |  | 3.91 |
| Cc1cc2c(C)c(C)sc2cc1Nc1ccccc1I |  | 2.91 |
| Cc1sc2c(Nc3cccc(C#N)c3)cccc2c1C | 1.84 |  |
| Cc1cc2c(C)c(C)sc2cc1Nc1ccc(C=O)cc1 |  | 2.39 |
| COc1cccc(Nc2cc3sc(C)c(C)c3cc2C)c1 |  | 3.38 |
